Counter-ions that a name gives are not always drawn.
Legend:
[1] = tested on: NMDA-induced neuropathy, animal models of epilepsy or brain ischemia; settings: reported in the literature; cited from earlier work
AMPA receptor = experiment: [3H]-AMPA binding inhibitory activity; settings: rat cerebral membrane
Method: Determination of [^3 H]-AMPA Binding Activity
A mixture (0.5 ml) of about 45 nM [^3 H]-AMPA (2-amino-3-(3-hydroxy-5-methyl-4-isoxazole)propionic acid), about […] of rat cerebral membrane specimen and the test compound was allowed to react on ice-water for 45 minutes. The amount of [^3 H]-AMPA bound to quisqualic acid receptors was determined by the filtration method. Of the total amount of binding, the portion substituted for by 10 μM quisqualic acid was regarded as specific binding. The test compound was evaluated by determining the percentage inhibition of the specific binding.

DBA/2 mice = experiment: Audiogenic convulsion inhibitory activity in DBA/2 mice; format: in vivo; settings: Mus musculus, ip, 0.25 h, intraperitoneal, given 15 minutes before sound stimulation, read-out: dose at which audiogenic convulsions were inhibited
Method: Determination of Audiogenic Convulsion Inhibitory Activity in DBA/2 Mice
Ten male mice, 21-28 days old, were placed in a soundproof box and loaded with a sound stimulus of 12 KHz and 120 dB for 1 minute or until the mice developed tonic convulsions.
The test compound was suspended in 0.5% methylcellulose solution or dissolved in physiological saline and administered intraperitoneally 45 or 15 minutes before sound stimulation.
The effect of the test compound was evaluated according to the onset of convulsion and the minimum effective dose (MED) was determined.

[2] = tested on: nerve cells in the hippocampus CA1; experiment: Neuron-protective action in the hippocampus, gerbil model of ischemia; format: in vivo; settings: administered 60, 70 and 85 minutes after 5-minute ischemia (regimen 2, 30 mg/kg/dose i.p.)
Method: Neuron-Protective Action in the Hippocampus
The protective action on nerve cell necrosis due to cerebral ischemia was tested using a gerbil model of ischemia constructed by occlusion of the bilateral common carotid arteries.
The bilateral common carotid arteries of the gerbil were occluded for 5 minutes under halothane anesthesia with the animal kept warm to avoid hypothermia and, then, the animal was allowed to recover from anesthesia. After 4 days, the brain was isolated and sections were prepared for histological examination of the degree of neuronal damage in the hippocampus CA1.
The test compound, either suspended in 0.5% methylcellulose solution or dissolved in physiological saline, was administered intraperitoneally. Two dosage regimens were employed. In regimen 1, 30 mg/kg/dose was administered 45 and 15 minutes before ischemia and 5 minutes and 1, 2, 3, 6 and 24 hours after obtaining re-patency. In regimen 2, 30 mg/kg/dose was administered 60, 70 and 85 minutes after obtaining re-patency.
Histopathological examination was performed using a light microscope. The degree of nerve cell impairment in the hippocampus CA1 area was rated on a 4-point scale of no lesion (score 0), slight necrosis (score 1), moderate necrosis (score 2) and complete necrosis (score 3).

[3] = tested on: animal model of brain ischemia; settings: reported in the literature; cited from earlier work

## NC(CCCP(=O)(O)O)C(=O)O (stereo not shown) [2-amino-5-phosphonovalerianic acid]
[1]
  efficacy in NMDA-induced neuropathy and in animal models of epilepsy or brain ischemia: effective

## NC(CCCCCP(=O)(O)O)C(=O)O (stereo not shown) [2-amino-7-phosphonoheptanoic acid]
[1]
  efficacy in NMDA-induced neuropathy and in animal models of epilepsy or brain ischemia: effective

## O=c1[nH]c2cc([N+](=O)[O-])c(-n3ccnc3)cc2n(O)c1=O [Example 8, 1-hydroxy-7-imidazolyl-6-nitroquinoxaline-2,3-(1H,4H)-dione]
AMPA receptor; at 1 μM
  AMPA receptor binding inhibitory activity: 96%
AMPA receptor
  Ki: 21 nM

## O=c1[nH]c2cc(-n3ccnc3)c(C(F)(F)F)cc2[nH]c1=O [Example 9, 6-(1-imidazolyl)-7-trifluoromethylquinoxaline-2,3-(1H,4H)-dione hydrochloride hydrate]
DBA/2 mice
  minimal effective dose: 3 mg/kg

## O=c1[nH]c2cc(-n3ccnc3)c([N+](=O)[O-])cc2[nH]c1=O [Example 15, 6-imidazolyl-7-nitroquinoxaline-2,3-(1H,4H)-dione]
[2]
  lesion score (hippocampus CA1, scale 0-3): 1.2
  neuron protecting activity: 60%
DBA/2 mice
  minimal effective dose: 3 mg/kg

## NC1CCN(O)C1=O (stereo not shown) [HA-966]
[3]
  efficacy in an animal model of brain ischemia: effective

## NS(=O)(=O)c1cccc2c1c([N+](=O)[O-])cc1[nH]c(=O)c(=O)[nH]c12 [NBQX]
[3]
  efficacy in an animal model of brain ischemia: effective

— US5283244A, “Fused pyrazine derivatives” (Yamanouchi Pharmaceutical Co., Ltd., priority 1990, dated 1994)
